Laboratory results from PMC9021288 (Nature Communications, 2022).

Columns and labels:
Assay in all cases: CYP reaction phenotyping
Format in all cases: in vitro ADME
[1] = biological target: T1, human recombinant CYP1A2 (Homo sapiens, UniProt P05177)
T1 construct: purchased Bactosomes (assay run at Cyprotex)
T1 sequence (P05177 1-516): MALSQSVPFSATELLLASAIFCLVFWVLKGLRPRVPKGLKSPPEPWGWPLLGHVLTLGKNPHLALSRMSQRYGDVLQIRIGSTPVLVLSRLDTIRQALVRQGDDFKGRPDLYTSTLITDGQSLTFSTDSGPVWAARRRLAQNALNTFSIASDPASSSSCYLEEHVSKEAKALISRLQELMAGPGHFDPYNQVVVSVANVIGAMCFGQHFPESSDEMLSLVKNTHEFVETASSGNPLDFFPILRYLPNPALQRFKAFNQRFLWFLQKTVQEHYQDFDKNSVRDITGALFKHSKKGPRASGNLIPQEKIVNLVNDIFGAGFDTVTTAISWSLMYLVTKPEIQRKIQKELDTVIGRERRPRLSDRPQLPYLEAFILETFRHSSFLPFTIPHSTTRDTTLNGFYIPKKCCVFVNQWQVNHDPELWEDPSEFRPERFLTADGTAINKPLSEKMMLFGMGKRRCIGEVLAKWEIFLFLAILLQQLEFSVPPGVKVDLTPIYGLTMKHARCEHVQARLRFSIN
Experimental: (§1) In vitro CYP reaction phenotyping was performed at Cyprotex (Alderly Park, United Kingdom). […] The remaining test compound at each time point was analyzed by LC-MS/MS.

[2] = biological target: T2, human recombinant CYP2B6 (Homo sapiens, UniProt P20813)
T2 construct: purchased Bactosomes (assay run at Cyprotex)
T2 sequence (P20813 1-491): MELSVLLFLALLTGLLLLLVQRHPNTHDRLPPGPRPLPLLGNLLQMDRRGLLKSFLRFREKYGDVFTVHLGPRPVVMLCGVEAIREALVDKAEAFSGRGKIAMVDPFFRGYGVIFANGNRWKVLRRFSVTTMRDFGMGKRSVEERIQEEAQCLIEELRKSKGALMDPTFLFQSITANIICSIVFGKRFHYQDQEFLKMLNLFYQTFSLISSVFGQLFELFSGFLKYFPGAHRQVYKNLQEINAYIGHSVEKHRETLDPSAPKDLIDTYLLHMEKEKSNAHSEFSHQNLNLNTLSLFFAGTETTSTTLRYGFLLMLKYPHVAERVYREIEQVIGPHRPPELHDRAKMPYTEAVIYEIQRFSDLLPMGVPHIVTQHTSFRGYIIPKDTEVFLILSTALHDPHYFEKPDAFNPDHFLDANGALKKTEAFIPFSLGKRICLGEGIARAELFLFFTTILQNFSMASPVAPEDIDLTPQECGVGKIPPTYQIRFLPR
Experimental: as §1

[3] = biological target: T3, human recombinant CYP2C19 (Homo sapiens, UniProt P33261); details: for Compound remaining (0 min = 100): CYP2C19
T3 construct: purchased Bactosomes (assay run at Cyprotex)
Experimental: as §1

[4] = biological target: T4, human recombinant CYP2C8 (Homo sapiens, UniProt P10632)
T4 construct: purchased Bactosomes (assay run at Cyprotex)
T4 sequence (P10632 1-490): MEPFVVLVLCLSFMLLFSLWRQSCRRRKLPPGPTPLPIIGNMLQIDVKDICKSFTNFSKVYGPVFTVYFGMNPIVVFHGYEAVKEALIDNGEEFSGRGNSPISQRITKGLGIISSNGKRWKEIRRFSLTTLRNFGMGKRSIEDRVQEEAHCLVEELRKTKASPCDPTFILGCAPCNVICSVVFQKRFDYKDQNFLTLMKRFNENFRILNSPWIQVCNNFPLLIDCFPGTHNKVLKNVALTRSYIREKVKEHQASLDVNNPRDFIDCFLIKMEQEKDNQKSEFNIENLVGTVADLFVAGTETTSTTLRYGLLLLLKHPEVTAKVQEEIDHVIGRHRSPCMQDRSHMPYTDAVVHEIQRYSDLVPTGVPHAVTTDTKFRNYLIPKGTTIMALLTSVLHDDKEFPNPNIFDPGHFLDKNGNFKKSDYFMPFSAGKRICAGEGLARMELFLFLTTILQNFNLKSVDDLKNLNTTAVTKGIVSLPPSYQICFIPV
Experimental: as §1

[5] = biological target: T5, human recombinant CYP2C9 (Homo sapiens, UniProt P11712)
T5 construct: purchased Bactosomes (assay run at Cyprotex)
Experimental: as §1

[6] = biological target: T6, human recombinant CYP2D6 (Homo sapiens, UniProt P10635)
T6 construct: purchased Bactosomes (assay run at Cyprotex)
Experimental: as §1

[7] = biological target: T7, human recombinant CYP3A4 (Homo sapiens, UniProt P08684); details: for Compound remaining (0 min = 100): CYP3A4
T7 construct: purchased Bactosomes (assay run at Cyprotex)
Experimental: as §1

[8] = biological target: T8, human recombinant CYP3A5 (Homo sapiens, UniProt P20815); details: for Compound remaining (0 min = 100): CYP3A5
T8 construct: purchased Bactosomes (assay run at Cyprotex)
Experimental: as §1

T3 sequence (P33261 whole entry): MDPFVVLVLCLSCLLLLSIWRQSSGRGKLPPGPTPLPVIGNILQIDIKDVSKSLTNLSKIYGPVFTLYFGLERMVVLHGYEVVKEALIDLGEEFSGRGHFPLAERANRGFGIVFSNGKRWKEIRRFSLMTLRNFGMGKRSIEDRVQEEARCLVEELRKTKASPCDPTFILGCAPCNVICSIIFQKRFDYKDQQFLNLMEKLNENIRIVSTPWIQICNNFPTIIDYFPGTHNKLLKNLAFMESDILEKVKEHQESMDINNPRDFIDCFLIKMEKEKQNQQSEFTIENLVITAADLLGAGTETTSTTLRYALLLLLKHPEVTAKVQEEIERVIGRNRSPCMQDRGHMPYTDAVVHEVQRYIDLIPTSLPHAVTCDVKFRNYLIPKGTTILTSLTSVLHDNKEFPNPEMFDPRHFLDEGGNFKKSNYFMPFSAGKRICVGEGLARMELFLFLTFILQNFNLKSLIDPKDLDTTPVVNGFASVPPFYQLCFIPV
T5 sequence (P11712 whole entry): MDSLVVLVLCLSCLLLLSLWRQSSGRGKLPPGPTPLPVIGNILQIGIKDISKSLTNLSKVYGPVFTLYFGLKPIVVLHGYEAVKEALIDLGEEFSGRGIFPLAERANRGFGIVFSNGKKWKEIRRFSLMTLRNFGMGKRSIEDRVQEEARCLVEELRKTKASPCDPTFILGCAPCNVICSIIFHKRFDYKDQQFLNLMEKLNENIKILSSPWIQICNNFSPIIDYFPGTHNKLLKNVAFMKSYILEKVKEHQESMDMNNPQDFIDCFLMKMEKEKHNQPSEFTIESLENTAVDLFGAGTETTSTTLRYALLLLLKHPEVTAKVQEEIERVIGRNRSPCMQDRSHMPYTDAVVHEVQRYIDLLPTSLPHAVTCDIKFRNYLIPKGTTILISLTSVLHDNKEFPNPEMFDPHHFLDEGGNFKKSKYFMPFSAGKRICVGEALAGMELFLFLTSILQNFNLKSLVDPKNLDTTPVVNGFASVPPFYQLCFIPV
T7 sequence (P08684 whole entry): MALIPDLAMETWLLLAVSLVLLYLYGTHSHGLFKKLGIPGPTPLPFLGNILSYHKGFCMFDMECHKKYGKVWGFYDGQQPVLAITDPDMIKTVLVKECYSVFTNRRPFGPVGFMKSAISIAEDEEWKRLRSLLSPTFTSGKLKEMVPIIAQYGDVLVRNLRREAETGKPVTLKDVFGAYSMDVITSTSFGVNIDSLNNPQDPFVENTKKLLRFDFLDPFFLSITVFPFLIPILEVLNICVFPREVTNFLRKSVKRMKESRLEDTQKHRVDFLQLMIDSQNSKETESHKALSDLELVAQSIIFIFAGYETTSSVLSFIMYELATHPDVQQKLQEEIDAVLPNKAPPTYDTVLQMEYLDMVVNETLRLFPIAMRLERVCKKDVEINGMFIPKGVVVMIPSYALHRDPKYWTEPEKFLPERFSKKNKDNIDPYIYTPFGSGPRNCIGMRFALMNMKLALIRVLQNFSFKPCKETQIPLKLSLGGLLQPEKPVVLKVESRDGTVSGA
T6 sequence (P10635 whole entry): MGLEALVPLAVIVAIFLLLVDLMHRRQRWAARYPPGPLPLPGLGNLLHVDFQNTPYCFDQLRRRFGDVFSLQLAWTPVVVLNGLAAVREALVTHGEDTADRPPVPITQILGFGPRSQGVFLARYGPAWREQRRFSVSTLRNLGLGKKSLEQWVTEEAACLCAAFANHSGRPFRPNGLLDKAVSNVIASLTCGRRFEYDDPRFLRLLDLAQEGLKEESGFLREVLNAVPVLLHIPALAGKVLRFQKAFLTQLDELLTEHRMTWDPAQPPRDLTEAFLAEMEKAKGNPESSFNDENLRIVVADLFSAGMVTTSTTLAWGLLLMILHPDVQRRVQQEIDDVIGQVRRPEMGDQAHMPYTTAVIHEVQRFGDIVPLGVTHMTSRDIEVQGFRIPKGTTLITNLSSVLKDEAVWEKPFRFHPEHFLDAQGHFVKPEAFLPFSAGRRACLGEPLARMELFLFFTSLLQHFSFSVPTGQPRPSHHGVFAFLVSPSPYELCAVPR
T8 sequence (P20815 whole entry): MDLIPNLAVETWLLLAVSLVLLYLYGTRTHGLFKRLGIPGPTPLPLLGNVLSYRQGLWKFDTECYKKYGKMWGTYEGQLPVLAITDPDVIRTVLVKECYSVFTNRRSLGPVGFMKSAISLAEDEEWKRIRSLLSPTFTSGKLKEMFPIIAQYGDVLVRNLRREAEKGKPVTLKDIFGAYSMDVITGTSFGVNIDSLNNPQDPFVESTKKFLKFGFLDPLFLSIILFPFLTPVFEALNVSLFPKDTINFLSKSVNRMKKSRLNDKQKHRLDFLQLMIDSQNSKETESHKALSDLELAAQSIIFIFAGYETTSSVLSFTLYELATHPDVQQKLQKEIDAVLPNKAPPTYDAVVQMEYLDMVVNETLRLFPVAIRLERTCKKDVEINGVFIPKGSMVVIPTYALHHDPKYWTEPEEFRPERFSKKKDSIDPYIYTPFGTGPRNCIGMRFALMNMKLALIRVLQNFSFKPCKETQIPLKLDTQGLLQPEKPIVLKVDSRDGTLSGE

With `C[C@@H](CNC(=O)[C@H](O)C(C)(C)CO)NC(=O)c1cc(F)c(F)cc1F` [MMV693183] the “Compound remaining (0 min = 100)” value ([1]; Incubation time (minutes) 0) was 100, the “Compound remaining (0 min = 100)” value ([1]; Incubation time (minutes) 5) was 98.3 and the “Compound remaining (0 min = 100)” value ([1]; Incubation time (minutes) 15) was 100. The “Compound remaining (0 min = 100)” value ([1]; Incubation time (minutes) 30) was 98.6, the “Compound remaining (0 min = 100)” value ([1]; Incubation time (minutes) 45) was 102 and the “Compound remaining (0 min = 100)” value ([2]; Incubation time (minutes) 0) was 100. For the same molecule, the “Compound remaining (0 min = 100)” value ([2]; Incubation time (minutes) 5) was 101, the “Compound remaining (0 min = 100)” value ([2]; Incubation time (minutes) 15) was 104 and the “Compound remaining (0 min = 100)” value ([2]; Incubation time (minutes) 30) was 97.8. The “Compound remaining (0 min = 100)” value ([2]; Incubation time (minutes) 45) was 97.9, the “role in oxidative metabolism” value ([3]; 1 µM, 45 min, to a lower extent) was “responsible for the oxidative metabolism” and the “Compound remaining (0 min = 100)” value ([3]; Incubation time (minutes) 0) was 100. The “Compound remaining (0 min = 100)” value ([3]; Incubation time (minutes) 5) was 98.6, the “Compound remaining (0 min = 100)” value ([3]; Incubation time (minutes) 15) was 92.4 and the “Compound remaining (0 min = 100)” value ([3]; Incubation time (minutes) 30) was 93.6. For the same molecule, the “Compound remaining (0 min = 100)” value ([3]; Incubation time (minutes) 45) was 95.9, the “Compound remaining (0 min = 100)” value ([4]; Incubation time (minutes) 0) was 100 and the “Compound remaining (0 min = 100)” value ([4]; Incubation time (minutes) 5) was 99.9. For the same molecule, the “Compound remaining (0 min = 100)” value ([4]; Incubation time (minutes) 15) was 100, the “Compound remaining (0 min = 100)” value ([4]; Incubation time (minutes) 30) was 101 and the “Compound remaining (0 min = 100)” value ([4]; Incubation time (minutes) 45) was 101. For the same molecule, the “Compound remaining (0 min = 100)” value ([5]; Incubation time (minutes) 0) was 100, the “Compound remaining (0 min = 100)” value ([5]; Incubation time (minutes) 5) was 102 and the “Compound remaining (0 min = 100)” value ([5]; Incubation time (minutes) 15) was 100. The “Compound remaining (0 min = 100)” value ([5]; Incubation time (minutes) 30) was 103, the “Compound remaining (0 min = 100)” value ([5]; Incubation time (minutes) 45) was 111 and the “Compound remaining (0 min = 100)” value ([6]; Incubation time (minutes) 0) was 100. The “Compound remaining (0 min = 100)” value ([6]; Incubation time (minutes) 5) was 105, the “Compound remaining (0 min = 100)” value ([6]; Incubation time (minutes) 15) was 101 and the “Compound remaining (0 min = 100)” value ([6]; Incubation time (minutes) 30) was 105. The “Compound remaining (0 min = 100)” value ([6]; Incubation time (minutes) 45) was 106, the “role in oxidative metabolism” value ([7]; 1 µM, 45 min) was “responsible for the oxidative metabolism” and the “Compound remaining (0 min = 100)” value ([7]; Incubation time (minutes) 0) was 100. For the same molecule, the “Compound remaining (0 min = 100)” value ([7]; Incubation time (minutes) 5) was 101, the “Compound remaining (0 min = 100)” value ([7]; Incubation time (minutes) 15) was 94.1 and the “Compound remaining (0 min = 100)” value ([7]; Incubation time (minutes) 30) was 90.1. For the same molecule, the “Compound remaining (0 min = 100)” value ([7]; Incubation time (minutes) 45) was 91.5, the “role in oxidative metabolism” value ([8]; 1 µM, 45 min) was “responsible for the oxidative metabolism” and the “Compound remaining (0 min = 100)” value ([8]; Incubation time (minutes) 0) was 100. The “Compound remaining (0 min = 100)” value ([8]; Incubation time (minutes) 5) was 101, the “Compound remaining (0 min = 100)” value ([8]; Incubation time (minutes) 15) was 92.7 and the “Compound remaining (0 min = 100)” value ([8]; Incubation time (minutes) 30) was 91.6. For the same molecule, the “Compound remaining (0 min = 100)” value ([8]; Incubation time (minutes) 45) was 93.9.
